# Measurements from patent US20240083910A1, “AMIDO-SUBSTITUTED PYRIDYL COMPOUNDS AND METHODS OF USE THEREOF FOR THE TREATMENT OF HERPESVIRUSES” (Merck Sharp & Dohme LLC, priority 2020, published 2024).
# Where two headings read alike, the source gives them in different places.
# Tests used:
# [1] = target: T1, Human cytomegalovirus DNA polymerase (Human cytomegalovirus, UniProt P08546); assay: CMV polymerase assay (AlphaLISA); type: biochemical; conditions: HCMV polymerase 0.2 nM; 30 min pre-incubation; 60 min at 37° C.; read-out: CMV (IC50)
# T1 construct: made in house; host or cells: SF21 insect cells (baculovirus vector)
# T1 sequence (P08546 whole entry): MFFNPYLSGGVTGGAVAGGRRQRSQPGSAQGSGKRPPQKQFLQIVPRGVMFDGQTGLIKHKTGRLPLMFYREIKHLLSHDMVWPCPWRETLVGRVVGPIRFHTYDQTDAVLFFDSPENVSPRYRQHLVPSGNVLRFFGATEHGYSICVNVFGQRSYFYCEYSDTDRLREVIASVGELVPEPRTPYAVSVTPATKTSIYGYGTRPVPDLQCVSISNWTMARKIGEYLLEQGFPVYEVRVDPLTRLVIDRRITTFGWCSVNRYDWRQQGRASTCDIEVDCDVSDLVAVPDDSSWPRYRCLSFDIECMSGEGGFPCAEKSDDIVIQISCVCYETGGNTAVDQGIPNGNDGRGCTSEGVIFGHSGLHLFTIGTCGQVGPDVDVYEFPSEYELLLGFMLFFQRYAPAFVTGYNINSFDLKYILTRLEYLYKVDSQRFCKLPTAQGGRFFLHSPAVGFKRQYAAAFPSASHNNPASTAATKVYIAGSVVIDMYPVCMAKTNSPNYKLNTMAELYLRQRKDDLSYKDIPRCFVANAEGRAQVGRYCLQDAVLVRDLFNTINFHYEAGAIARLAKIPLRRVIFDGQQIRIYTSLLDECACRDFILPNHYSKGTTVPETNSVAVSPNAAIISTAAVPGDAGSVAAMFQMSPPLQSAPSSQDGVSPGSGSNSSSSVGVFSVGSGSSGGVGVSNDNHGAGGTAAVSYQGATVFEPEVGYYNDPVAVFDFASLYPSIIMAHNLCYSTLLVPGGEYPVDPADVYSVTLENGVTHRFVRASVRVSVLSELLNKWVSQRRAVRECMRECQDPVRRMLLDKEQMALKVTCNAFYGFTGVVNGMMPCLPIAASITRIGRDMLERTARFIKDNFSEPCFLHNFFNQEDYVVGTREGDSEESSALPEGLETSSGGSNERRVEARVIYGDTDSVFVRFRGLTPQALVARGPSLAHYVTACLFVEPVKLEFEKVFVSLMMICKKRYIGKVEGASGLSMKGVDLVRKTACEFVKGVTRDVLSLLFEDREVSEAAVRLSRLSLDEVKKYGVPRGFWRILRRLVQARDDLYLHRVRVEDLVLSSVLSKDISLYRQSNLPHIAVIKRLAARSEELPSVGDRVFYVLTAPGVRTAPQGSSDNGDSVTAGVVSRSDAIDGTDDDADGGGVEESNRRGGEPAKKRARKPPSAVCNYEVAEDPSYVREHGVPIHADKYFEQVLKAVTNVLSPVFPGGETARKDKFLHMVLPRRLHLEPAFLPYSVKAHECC
# Procedure: (§1) Human cytomegalovirus and varicella zoster virus DNA polymerases were expressed via baculovirus vector in SF21 cells and purified. Heterodimeric nucleic acid substrate used in the herpesvirus polymerase reactions was generated by annealing a 59-mer template to a 17-mer digoxigenin-labeled primer. Polymerase (HCMV final concentration of 0.2 nM; VZV final concentration of 0.4 nM) was combined with an inhibitor compound or DMSO in assay buffer (10 mM HEPES, pH 7.5, 25 mM KCl, 25 mM NaCl, 5 mM MgCl2, 5% glycerol, 0.67 mg/ml bovine serum albumin, and 1 mM tris(2-carboxyethyl)phosphine), and this mixture was pre-incubated for 30 minutes at room temperature in 384-well microtiter plates. The polymerization reaction was initiated by the addition of template/primer substrate (final concentration: 1.6 nM), and dNTPs (final concentration: 24 nM dCTP, 24 nMdGTP, 16 nM dATP, 16 nM dTTP, and 0.8 nM biotin-dUTP). After 60 min incubation at 37° C., reactions were terminated with quench buffer (25 mM HEPES pH 7.5, 100 mM NaCl, 0.25% Tween-20, 12 mM EDTA, and 1 mg/ml bovine serum albumin). Incorporation of biotinylated UTP was detected with 2.5-5 ug/ml anti-DIG AlphaLISA acceptor beads and 5-10 ug/ml streptavidin AlphaLISA donor beads (PerkinElmer). Compound effects were normalized to the window defined by the controls (DMSO only and pre-quenched wells) and were fit using a 4-parameter algorithm to report an IC50.
# [2] = target: T2, varicella zoster virus DNA polymerase (Varicella-zoster virus, UniProt P09252); assay: VZV polymerase assay (AlphaLISA); type: biochemical; conditions: VZV polymerase 0.4 nM; 30 min pre-incubation; 60 min at 37° C.
# T2 construct: made in house; host or cells: SF21 insect cells (baculovirus vector)
# T2 sequence (P09252 whole entry): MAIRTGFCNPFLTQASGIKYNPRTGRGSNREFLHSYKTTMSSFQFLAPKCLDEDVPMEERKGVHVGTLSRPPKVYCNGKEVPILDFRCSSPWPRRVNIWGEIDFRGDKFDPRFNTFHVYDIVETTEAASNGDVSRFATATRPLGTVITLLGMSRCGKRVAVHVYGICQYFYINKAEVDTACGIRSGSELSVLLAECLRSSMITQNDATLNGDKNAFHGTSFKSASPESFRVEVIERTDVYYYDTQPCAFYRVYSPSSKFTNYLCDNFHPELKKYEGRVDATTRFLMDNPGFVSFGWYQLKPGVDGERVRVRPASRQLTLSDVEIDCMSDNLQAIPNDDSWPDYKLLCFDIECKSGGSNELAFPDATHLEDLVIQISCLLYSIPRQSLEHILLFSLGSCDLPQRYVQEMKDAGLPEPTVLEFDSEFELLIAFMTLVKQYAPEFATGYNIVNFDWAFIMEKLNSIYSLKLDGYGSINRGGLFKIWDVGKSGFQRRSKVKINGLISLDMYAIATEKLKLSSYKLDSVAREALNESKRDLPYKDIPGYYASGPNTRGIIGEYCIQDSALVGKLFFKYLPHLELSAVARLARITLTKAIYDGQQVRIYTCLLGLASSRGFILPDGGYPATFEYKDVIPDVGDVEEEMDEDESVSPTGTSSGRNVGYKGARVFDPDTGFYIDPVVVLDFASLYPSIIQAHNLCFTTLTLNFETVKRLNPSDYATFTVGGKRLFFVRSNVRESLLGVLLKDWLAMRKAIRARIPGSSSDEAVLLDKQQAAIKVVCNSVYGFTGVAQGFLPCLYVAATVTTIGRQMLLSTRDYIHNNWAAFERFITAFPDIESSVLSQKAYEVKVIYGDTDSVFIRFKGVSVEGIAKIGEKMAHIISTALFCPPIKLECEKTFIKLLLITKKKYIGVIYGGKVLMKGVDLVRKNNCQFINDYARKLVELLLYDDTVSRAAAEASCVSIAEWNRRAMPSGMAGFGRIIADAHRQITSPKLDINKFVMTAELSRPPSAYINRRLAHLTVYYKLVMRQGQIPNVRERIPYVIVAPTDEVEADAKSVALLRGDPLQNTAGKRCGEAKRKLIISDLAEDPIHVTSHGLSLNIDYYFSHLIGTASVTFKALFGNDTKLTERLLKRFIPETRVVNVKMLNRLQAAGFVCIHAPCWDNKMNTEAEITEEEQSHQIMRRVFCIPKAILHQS
# Procedure: as §1
# HCMV Strain AD169 = assay: Viral qPCR assay, HCMV; type: cell-based, Human cytomegalovirus; conditions: MRC-5 cells, 0.05-0.1 pfu/cell, growth media or 50% fetal bovine serum, viral genome copies by qPCR, read-out: CMV Cell (EC50)
# Procedure: (§2) MRC5 cells, Vero cells, and MeWo cells were obtained from ATCC, and were maintained at 37° C./5% CO2/90% relative humidity in Minimal Essential Medium with 10% fetal bovine serum, […] L-glutamine, 100 units/ml penicillin and 100 ug/ml streptomycin. Assay plates were prepared by dispensing compounds dissolved in DMSO into wells of 384 well collagen-coated plates using an ECHO acoustic dispenser. Each compound was tested in a 10-point, serial 3-fold dilution. Controls included uninfected cells and infected cells treated only with DMSO. Assays were initiated by mixing selected cells, in suspension, with virus, and dispensing 50 μl/well infected cells to pre-plated compounds. Plates were incubated at 37° C./5% CO2/90% relative humidity for ˜72 hrs to permit genomic replication, and infected cells were lysed by the addition of an equal volume of lysis buffer (10 mM Tris-HCl, pH8, 50 mM KCl, 2 mM MgCl2, 0.45% NP-40, 0.45% Tween-20, and 100 μg/ml proteinase K). An aliquot of the lysate was transferred to a 384-well PCR plate and incubated at 56° C. for 1 hour and then at 95° C. for 10 min. Levels of a viral gene and of the cellular control, PPIA (Thermo Fisher Assay ID=Hs04194521_s1), were measured in separate 10 ul qPCR assays using TaqMan® Gene Expression Master Mix (Applied Biosystems), and an 7900HT Fast Real-Time PCR System with 384-Well Block Module. 7-point, serial 10-fold dilutions of a plasmid standard were run on each plate to generate a standard curve, and genome copies numbers were calculated by plotting experimental Ct onto linear regression of the standard curve. Viral genome copy numbers were normalized by cellular control copy number, and compound effects were normalized to the window defined by the controls. Calculated % effects were fit using a 4-parameter algorithm, and EC50 was reported.
# (§3) MRC5 cells, Vero cells, and MeWo cells were obtained from ATCC, and were maintained at 37° C./5% CO2/90% relative humidity in Minimal Essential Medium with 10% fetal bovine serum, […] L-glutamine, 100 units/ml penicillin and 100 ug/ml streptomycin. Assay plates were prepared by dispensing compounds dissolved in DMSO into wells of 384 well collagen-coated plates using an ECHO acoustic dispenser. Each compound was tested in a 10-point, serial 3-fold dilution. Controls included uninfected cells and infected cells treated only with DMSO. Assays were initiated by mixing selected cells, in suspension, with virus, and dispensing 50 μl/well infected cells to pre-plated compounds. Plates were incubated at 37° C./5% CO2/90% relative humidity for ˜72 hrs to permit genomic replication, and infected cells were lysed by the addition of an equal volume of lysis buffer (10 mM Tris-HCl, pH 8, 50 mM KCl, 2 mM MgC12, 0.45% NP-40, 0.45% Tween-20, and 100 μg/ml proteinase K). An aliquot of the lysate was transferred to a 384-well PCR plate and incubated at 56° C. for 1 hour and then at 95° C. for 10 min. Levels of a viral gene were measured in 10 ul qPCR assays using TaqMan® Gene Expression Master Mix (Applied Biosystems), and an 7900HT Fast Real-Time PCR System with 384-Well Block Module. 7-point, serial 10-fold dilutions of a plasmid standard were run on each plate to generate a standard curve, and genome copies numbers were calculated by plotting experimental Ct onto linear regression of the standard curve. Compound effects on viral genome copy number were normalized to the window defined by the controls. Calculated % effects were fit using a 4-parameter algorithm, and ECso was reported.
# HCMV: Strain AD169 Street was assayed in MRC-5 cells and was used at 0.05-0.1 pfu/cell. The assays were performed in either growth media or in the same media with 50% fetal bovine serum. Primer-probe set was Thermo Fisher Assay ID=AIFATFK.
# VZV = assay: Viral qPCR assay, VZV; type: cell-based, varicella zoster virus; conditions: MeWo or MRC5 cells, 0.04-0.1 pfu/cell, growth medium, viral genome copies by qPCR
# Procedure: as §2, §3
# VZV: Strain Street was maintained as an infected cell stock in MRC-5 cells. It was assayed in MeWo or MRC5 cells and was used at 0.04-0.1 pfu/cell. The assays were performed in growth medium. Primer-probe set was Thermo Fisher Assay ID=AIPAEXQ.
# HSV-1 Strain F = assay: Viral qPCR assay, HSV-1; type: cell-based, Herpes Simplex Virus type 1; conditions: Vero or MRC5 cells, 0.0005-0.004 pfu/cell, growth medium, viral genome copies by qPCR, read-out: HSV1 Cell (EC50)
# Procedure: as §2, §3
# HSV-1: Strain F […] was assayed in Vero or MRC5 cells and was used at 0.0005-0.004 pfu/cell in growth medium. Primer-probe set was Thermo Fisher Assay ID=AIBJZIB
# [3] = Human betaherpesvirus 5, AD169, MRC5, 72 h
Compound,IC50 [1] [nM],IC50 [2] [nM],EC50 (HCMV Strain AD169; [3]) [nM],EC50 (HCMV Strain AD169; ~72 hrs) [nM],EC50 (VZV; ~72 hrs) [nM],EC50 (HSV-1 Strain F; ~72 hrs) [nM],"EC50 (VZV; Human alphaherpesvirus 3, 72 h) [nM]","EC50 (HSV-1 Strain F; Human alphaherpesvirus 1, 72 h) [nM]"
COc1nc(-c2cncs2)c(O[C@H]2CCN3C(=O)OC[C@@H]3C2)cc1C(=O)NCc1ccc(Cl)cc1 [Compound 16],2.07,0.63,137,,,,,
COc1nc(N2CCC(C(C)(C)O)C2)c(O[C@H]2CCN3C(=O)OC[C@@H]3C2)cc1C(=O)NCc1ccc(Cl)cc1 (some centres unmarked) [Compound 68],28.7,,,265,661,654,,
COc1nc(CC(C)(C)O)c(O[C@H]2CCN3C(=O)OC[C@@H]3C2)cc1C(=O)NCc1ccc(Cl)cc1 [Compound 73],20.9,,339,,,,828,575
COc1nc(C2CC3(CC(O)C3)C2)c(O[C@H]2CCN3C(=O)OC[C@@H]3C2)cc1C(=O)NCc1ccc(Cl)cc1 (some centres unmarked) [Compound 76],32.1,,519,,,,778,293
COc1nc(CC(C)(C)N)c(O[C@H]2CCN3C(=O)OC[C@@H]3C2)cc1C(=O)NCc1ccc(Cl)cc1 [Compound 81],88.6,,558,,,,3650,2880
Cc1nsc(-c2nc(OCC(C)(C)O)c(C(=O)NCc3ccc(Cl)cc3)cc2O[C@H]2CCN3C(=O)OC[C@@H]3C2)n1 [Compound 87],5.13,,108,,,,207,140
CN(C)CCOc1nc(-c2cnn(C(F)F)c2)c(O[C@H]2CCN3C(=O)OC[C@@H]3C2)cc1C(=O)NCc1ccc(Cl)cc1 [Compound 88],3.16,,32.5,,,,317,257
O=C(NCc1ccc(Cl)cc1)c1cc(O[C@H]2CCN3C(=O)OC[C@@H]3C2)c(-c2cnn(C(F)F)c2)nc1OCCF [Compound 89],12.1,,195,,,,246,203
CC1(COc2nc(-c3cnn(C(F)F)c3)c(O[C@H]3CCN4C(=O)OC[C@@H]4C3)cc2C(=O)NCc2ccc(Cl)cc2)COC1 [Compound 90],9.83,,131,,,,286,180
O=C(NCc1ccc(Cl)cc1)c1cc(O[C@H]2CCN3C(=O)OC[C@@H]3C2)c(-c2cnn(C(F)F)c2)nc1OCC1CC1(F)F (some centres unmarked) [Compound 91],18.5,,271,,,,569,346
CC(C)(C#N)COc1nc(-c2cnn(C(F)F)c2)c(O[C@H]2CCN3C(=O)OC[C@@H]3C2)cc1C(=O)NCc1ccc(Cl)cc1 [Compound 92],7.31,,137,,,,417,229
CC(O)COc1nc(-c2cnn(C(F)F)c2)c(O[C@H]2CCN3C(=O)OC[C@@H]3C2)cc1C(=O)NCc1ccc(Cl)cc1 (some centres unmarked) [Compound 93],4.62,,204,,,,250,59.1
CN1C(=O)NC[C@@H]1COc1nc(-c2cnn(C(F)F)c2)c(O[C@H]2CCN3C(=O)OC[C@@H]3C2)cc1C(=O)NCc1ccc(Cl)cc1 [Compound 94],5.15,,520,,,,2180,773
CN(C)CCCOc1nc(-c2cnn(C(F)F)c2)c(O[C@H]2CCN3C(=O)OC[C@@H]3C2)cc1C(=O)NCc1ccc(Cl)cc1 [Compound 95],1.46,,151,,,,463,141
CCN(CC)CCOc1nc(-c2cnn(C(F)F)c2)c(O[C@H]2CCN3C(=O)OC[C@@H]3C2)cc1C(=O)NCc1ccc(Cl)cc1 [Compound 96],2.72,,75.9,,,,400,148
CN1CCN(CCCOc2nc(-c3cnn(C(F)F)c3)c(O[C@H]3CCN4C(=O)OC[C@@H]4C3)cc2C(=O)NCc2ccc(Cl)cc2)CC1 [Compound 98],14.1,,115,,,,617,290
O=C1CC[C@@H](COc2nc(-c3cnn(C(F)F)c3)c(O[C@H]3CCN4C(=O)OC[C@@H]4C3)cc2C(=O)NCc2ccc(Cl)cc2)N1 [Compound 99],4.67,,282,,,,1310,493
NC(=O)CCOc1nc(-c2cnn(C(F)F)c2)c(O[C@H]2CCN3C(=O)OC[C@@H]3C2)cc1C(=O)NCc1ccc(Cl)cc1 [Compound 100],3.17,,47.4,,,,451,213
CCOc1nc(-c2cnn(C(F)F)c2)c(O[C@H]2CCN3C(=O)OC[C@@H]3C2)cc1C(=O)NCc1ccc(Cl)cc1 [Compound 101],42.6,,524,,,,578,320
COc1nc(-c2cnn(C(F)F)c2)c(O[C@@H]2CCN(C(C)=O)[C@H](C)C2)cc1C(=O)NCc1ccc(Cl)cc1 [Compound 102],14.5,,344,,,,887,601
COc1ncc(O[C@H]2CCN3C(=O)OC[C@@H]3C2)cc1C(=O)NCc1ccc(Cl)cc1 [Compound 103],249,110,4690,,,,5500,
